Where “and” joins values, the source holds several entries; their conditions need not be identical. Equal values may be shown once. Inconclusive results are not listed.
Test system: MX-1 breast xenograft, intrarenal, nude mice, tumor weight
Assay: NCI In Vivo Anticancer Drug Screen. Data for tumor model Human Mammary Carcinoma MX-1 Xenograft (intrarenal inoculation) in NU/NU BALB/C (nude) mice
Details: endpoint: mean tumor weight change, higher = larger tumour
In short: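 Transplantable tumors established in mice; animals dosed with compound or vehicle; survival or tumor size then recorded. Result reported as treated (T) divided by vehicle control (C).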

[1] = dose: 600.0 mg/kg/injection, schedule: Q04DX003 (sc), vehicle: saline
[2] = dose: 300.0 mg/kg/injection, schedule: Q04DX003 (sc), vehicle: saline
[3] = dose: 150.0 mg/kg/injection, schedule: Q04DX003 (sc), vehicle: saline
[4] = dose: 100.0 mg/kg/injection, schedule: Q04DX003 (ip), vehicle: Klucel (hydroxypropylcellulose) (HPC)
[5] = dose: 200.0 mg/kg/injection, schedule: Q04DX003 (ip), vehicle: Klucel (hydroxypropylcellulose) (HPC)
[6] = dose: 400.0 mg/kg/injection, schedule: Q04DX003 (ip), vehicle: Klucel (hydroxypropylcellulose) (HPC)
[7] = dose: 800.0 mg/kg/injection, schedule: Q04DX003 (ip), vehicle: Klucel (hydroxypropylcellulose) (HPC)
[8] = dose: 25.0 mg/kg/injection, schedule: Q04DX003 (ip), vehicle: saline
[9] = dose: 50.0 mg/kg/injection, schedule: Q04DX003 (ip), vehicle: saline
[10] = dose: 100.0 mg/kg/injection, schedule: Q04DX003 (ip), vehicle: saline with Tween-80

CC[C@]1(O)C[C@H]2CN(CCc3c([nH]c4ccccc34)[C@@](C(=O)OC)(c3cc4c(cc3OC)N(C)[C@H]3[C@@](O)(C(=O)OC)[C@H](OC(C)=O)[C@]5(CC)C=CCN6CC[C@]43[C@@H]65)C2)C1
T/C (dose: 0.25 mg/kg/injection, schedule: Q01DX010 (sc), vehicle: saline): 43 % of control
T/C (dose: 0.5 mg/kg/injection, schedule: Q01DX010 (sc), vehicle: saline): 18 % of control

NC(=S)N/N=C/c1ncccc1O
T/C (dose: 150.0 mg/kg/injection, schedule: Q04DX003 (ip), vehicle: suspension in saline): 86 % of control
T/C (dose: 300.0 mg/kg/injection, schedule: Q04DX003 (ip), vehicle: suspension in saline): 93 % of control

CCC12C[N+]3([O-])CCc4c([nH]c5ccccc45)C(C(=O)OC)(c4cc5c(cc4OC)N(C)C4C(O)(C(=O)OC)C(OC(C)=O)C6(CC)C=CCN7CCC54C76)CC(C3)C1O2 (stereo not drawn)
T/C (dose: 80.0 mg/kg/injection, schedule: Q04DX003 (sc), vehicle: water): 109 % of control
T/C (dose: 160.0 mg/kg/injection, schedule: Q04DX003 (sc), vehicle: water): 117 % of control
T/C (dose: 320.0 mg/kg/injection, schedule: Q04DX003 (sc), vehicle: water): 123 % of control
T/C (dose: 640.0 mg/kg/injection, schedule: Q04DX003 (sc), vehicle: water): 88 % of control

CCCCCCCCCCCCN1C(C)=CS/C1=C\C=C\c1scc(C)[n+]1CCCCCCCCCCCC
T/C (dose: 0.75 mg/kg/injection, schedule: Q04DX003 (ip), vehicle: saline with Tween-80): 91 % of control
T/C (dose: 1.5 mg/kg/injection, schedule: Q04DX003 (ip), vehicle: saline with Tween-80): 89 % of control
T/C (dose: 3.0 mg/kg/injection, schedule: Q04DX003 (ip), vehicle: saline with Tween-80): 28 % of control

N=C1CCCS1
T/C (dose: 18.75 mg/kg/injection, schedule: Q04DX003 (sc), vehicle: saline): 108 % of control
T/C (dose: 37.5 mg/kg/injection, schedule: Q04DX003 (sc), vehicle: saline): 91 % of control
T/C (dose: 75.0 mg/kg/injection, schedule: Q04DX003 (sc), vehicle: saline): 124 % of control

O=NNc1ccc(Cl)cn1
T/C (dose: 4.7 mg/kg/injection, schedule: Q04DX003 (ip), vehicle: water): 60 % of control
T/C (dose: 9.4 mg/kg/injection, schedule: Q04DX003 (ip), vehicle: water): 59 % of control
T/C (dose: 18.7 mg/kg/injection, schedule: Q04DX003 (ip), vehicle: water): 29 % of control
T/C (dose: 37.5 mg/kg/injection, schedule: Q04DX003 (ip), vehicle: water): 4 % of control

CCN(CC)CCOCCO
T/C [1]: 121 % of control

COc1cc(Cc2nccc3cc(OC)c(OC)cc23)c(C(C)=O)cc1OC
T/C [2]: 54 % of control
T/C [1]: 68 % of control
T/C (dose: 1200.0 mg/kg/injection, schedule: Q04DX003 (sc), vehicle: saline): 48 % of control

O=P1(NCCCl)OCCCN1CCCl (stereo not drawn)
T/C [3]: -32 % of control

O=[N+]([O-])c1ccc(Sc2ccncn2)c([N+](=O)[O-])c1
T/C (dose: 150.0 mg/kg/injection, schedule: Q04DX003 (sc), vehicle: saline with Tween-80): 158 % of control
T/C (dose: 300.0 mg/kg/injection, schedule: Q04DX003 (sc), vehicle: saline with Tween-80): 153 % of control
T/C (dose: 600.0 mg/kg/injection, schedule: Q04DX003 (sc), vehicle: saline with Tween-80): 86 % of control
T/C (dose: 1200.0 mg/kg/injection, schedule: Q04DX003 (sc), vehicle: saline with Tween-80): 115 % of control

O=C1CSC(c2cccs2)N1c1nncs1 (stereo not drawn)
T/C [4]: 92 % of control
T/C [5]: 102 % of control
T/C [6]: 57 % of control
T/C [7]: 49 % of control

NCCCNCCCCNC(=O)C(O)NC(=O)CC(O)CCCCN=C(N)N (stereo not drawn)
T/C (dose: 12.5 mg/kg/injection, schedule: Q04DX003 (ip), vehicle: saline): 100 % of control
T/C [8]: 93 % of control
T/C [9]: 29 % of control and 44 % of control
T/C (dose: 100.0 mg/kg/injection, schedule: Q04DX003 (ip), vehicle: saline): 53 % of control and 56 % of control

COC(=O)[C@@]12OC[C@]34[C@H]([C@@H](O)[C@@H]1O)[C@@]1(C)CC(=O)C(O)=C(C)[C@@H]1C[C@H]3OC(=O)[C@H](OC(=O)/C=C(\C)C(C)C)[C@@H]24
T/C (dose: 1.0 mg/kg/injection, schedule: Q01DX010 (sc), vehicle: saline + alcohol): 51 % of control

CS(C)(O)NC(N)=O
T/C (dose: 150.0 mg/kg/injection, schedule: Q04DX003 (ip), vehicle: water): 119 % of control
T/C (dose: 300.0 mg/kg/injection, schedule: Q04DX003 (ip), vehicle: water): 154 % of control
T/C (dose: 600.0 mg/kg/injection, schedule: Q04DX003 (ip), vehicle: water): 110 % of control
T/C (dose: 1200.0 mg/kg/injection, schedule: Q04DX003 (ip), vehicle: water): 74 % of control

Cc1nc2c(N)cc(Cl)cc2[nH]1
T/C [10]: 95 % of control
T/C (dose: 200.0 mg/kg/injection, schedule: Q04DX003 (ip), vehicle: saline with Tween-80): 45 % of control

CCOC(=O)c1c[nH]c2ccc3c(nc(C)n3C)c2c1=O
T/C [4]: 122 % of control
T/C [5]: 122 % of control
T/C [6]: 94 % of control
T/C [7]: 77 % of control

CC(=O)C[n+]1ccccc1Sc1ccc(Cl)cc1
T/C (dose: 25.0 mg/kg/injection, schedule: Q04DX003 (ip), vehicle: saline with Tween-80): 66 % of control
T/C (dose: 50.0 mg/kg/injection, schedule: Q04DX003 (ip), vehicle: saline with Tween-80): 64 % of control
T/C [10]: 89 % of control

O=S(=O)(O)O.[NH-]C1CCCCC1[NH-].[Pt+2] (stereo not drawn)
T/C (dose: 0.63 mg/kg/injection, schedule: Q01DX010 (sc), vehicle: dextrose): 81 % of control
T/C (dose: 1.25 mg/kg/injection, schedule: Q01DX010 (sc), vehicle: dextrose): 41 % of control
T/C (dose: 2.5 mg/kg/injection, schedule: Q01DX010 (sc), vehicle: dextrose): 6 % of control

C[CH2][Sn]([Cl])([CH2]C)[c]1cc[c]([Sn]([Cl])([CH2]C)[CH2]C)cc1
T/C (dose: 0.25 mg/kg/injection, schedule: Q04DX003 (ip), vehicle: Klucel (hydroxypropylcellulose) (HPC)): 103 % of control
T/C (dose: 0.5 mg/kg/injection, schedule: Q04DX003 (ip), vehicle: Klucel (hydroxypropylcellulose) (HPC)): 109 % of control
T/C (dose: 1.0 mg/kg/injection, schedule: Q04DX003 (ip), vehicle: Klucel (hydroxypropylcellulose) (HPC)): 95 % of control

CC[C@@H](C)[C@H]([C@H](CC(=O)N1CCC[C@@H]1[C@@H](OC)[C@H](C)C(=O)N[C@H](Cc1ccccc1)c1nccs1)OC)N(C)C(=O)[C@H](NC(=O)[C@@H](C(C)C)N(C)C)C(C)C
T/C (dose: 13.0 micrograms/kg/injection, schedule: Q04DX003 (ip), vehicle: saline + alcohol): 61 % of control
T/C (dose: 26.0 micrograms/kg/injection, schedule: Q04DX003 (ip), vehicle: saline + alcohol): 50 % of control
T/C (dose: 52.0 micrograms/kg/injection, schedule: Q04DX003 (ip), vehicle: saline + alcohol): 14 % of control

CCCCCCCCCCCCCCCCP(=O)(OCCOCCCCCC)OCCOCCCCCC
T/C [3]: 102 % of control
T/C [2]: 97 % of control
T/C [1]: 70 % of control

O=c1n(CC2CO2)c(=O)n(CC2CO2)n1CC1CO1 (stereo not drawn)
T/C (dose: 9.38 mg/kg/injection, schedule: Q04DX003 (sc), vehicle: suspension in saline): 46 % of control
T/C (dose: 18.75 mg/kg/injection, schedule: Q04DX003 (sc), vehicle: suspension in saline): 20 % of control
T/C (dose: 37.5 mg/kg/injection, schedule: Q04DX003 (sc), vehicle: suspension in saline): 12 % of control

N=C(N)c1ccc(N=Nc2c(O)ccc3cc(O)ccc23)cc1
T/C (dose: 75.0 mg/kg/injection, schedule: Q04DX003 (ip), vehicle: Klucel (hydroxypropylcellulose) (HPC)): 98 % of control and 123 % of control
T/C (dose: 150.0 mg/kg/injection, schedule: Q04DX003 (ip), vehicle: Klucel (hydroxypropylcellulose) (HPC)): 95 % of control and 117 % of control
T/C (dose: 300.0 mg/kg/injection, schedule: Q04DX003 (ip), vehicle: Klucel (hydroxypropylcellulose) (HPC)): 70 % of control

CN(C)CCCN=c1c2ccccc2n(C)c2[nH]c(=O)n(C)c(=O)c12
T/C [8]: 112 % of control
T/C [9]: 82 % of control

Cc1nc(N)nc(N)c1N1CCN(c2ccc(C(=O)NC(CCC(=O)O)C(=O)O)cc2)CC1 (stereo not drawn)
T/C (dose: 12.5 mg/kg/injection, schedule: Q04DX003 (ip), vehicle: other): 85 % of control
T/C (dose: 25.0 mg/kg/injection, schedule: Q04DX003 (ip), vehicle: other): 112 % of control
T/C (dose: 50.0 mg/kg/injection, schedule: Q04DX003 (ip), vehicle: other): 122 % of control
T/C (dose: 100.0 mg/kg/injection, schedule: Q04DX003 (ip), vehicle: other): 87 % of control

From PubChem BioAssay AID298 (DTP/NCI, 2004)
